The results in this text go back to PMC11546719, “Immune Modulatory Profile of the Pateamines PatA and Des-Methyl Des-Amino PatA” (International Journal of Molecular Sciences, 2024).

The subject of one data set is Caco-2 cell barrier. The data set can be described thus: Transport assay, Caco-2 cell barrier. It counts as in vitro ADME. The following applies: for Permeability / transport rate across Caco-2 cell barrier (in words): 4 and 24 h, PatA, DMDA 5, 50, 100 nM, controls 200 µM. The procedure:
The transport assay was achieved as described previously. Briefly, 1 × 10^5 CaCo-2 or 5 × 10^4 Calu-3 cells in 300 µL medium were seeded on 24-well ThinCerts (pre-coated with FCS for 60 min) and in the lower compartment, 1 mL culture medium per well was added. The Caco-2 cell barrier was generated over 20 days and the Calu-3 barrier was generated over 14 days. DMDA (0 nM, 5 nM, 50 nM, 100 nM), PatA (0 nM, 5 nM, 50 nM, 100 nM), 200 µM famotidine, 200 µM lucifer yellow or 200 µM carbamazepine diluted in medium was added to the apical compartment and incubated for 4 h or 24 h. The medium from the basolateral and apical compartment was collected and stored at −20 °C and analyzed using LC-MS/MS. To obtain the transport rate, the drug amount in the basolateral compartment at 4 h or 24 h was related to the drug amount in the apical compartment (0 h).
The detailed method for the analysis of DMDA, PatA, carbamazepine and famotidine using LC-MS/MS is described in the Supplementary Materials.

The subject of data set [1] is M2 MdMs. The data set can be described thus: Energy metabolism (Seahorse OCR/ECAR) in M2 MdMs. It is filed as cell-based, human. The following applies: 24 h, 0.5-5 nM. The protocol:
(§1) The determination of the energy metabolism was performed as described previously. Briefly, for the analysis of the extracellular acidification rate (ECAR) and the oxygen consumption rate (OCR) for human B cells, Tcells, M1 MdMs and M2 MdMs, the Seahorse XFe96 FluxPak (Agilent, Waldbronn, Germany) was used as recommended by the manufacturer. MdMs were polarized to M1 or M2 MdMs in the presence of PatA (0.5, 2.5, 5 nM), DMDA (0.5, 2.5, 5 nM) or vehicle (DMSO) for 48 h or 24 h, respectively. T cells were activated in the presence of PatA (0.25, 0.5 nM), DMDA (0.25, 0.5 nM), silvestrol or DMSO. B cells were activated in the presence of PatA (0.25, 0.5 nM), DMDA (0.25, 0.5 nM), silvestrol (5 nM) or rapamycin (10 ng/mL positive control). Cells were washed with Seahorse XF RPMI medium pH 7.4 (Agilent, Waldbronn, Germany) and OCR and ECAR were measured as octuplicates for a period of 160 min using the Seahorse XFe96 Analyzer (Agilent, Waldbronn, Germany) and analyzed by Wave Software 2.6.3.8 (Agilent, Waldbronn, Germany). The relative values were calculated by relating the OCR or ECAR values obtained after 50 min to the values of the vehicle control (not stimulated).

In a further data set the test system is B cells. The data set can be described thus: Energy metabolism (Seahorse OCR/ECAR) in B cells. It counts as cell-based, human. Conditions: 5 days, PatA, DMDA 0.25-0.5 nM, silvestrol 5 nM, rapamycin 10 ng/mL. The procedure:
as §1

The test system of data set [2] is M2 MdMs. The experiment in a line: Polarization of MdMs to M2 MdMs (zombie staining, flow cytometry, ELISA/CBA). It counts as cell-based, human. Conditions: for Inflammatory environment (inflammatory mediators in supernatant): ELISA or CBA; for Apoptosis (zombie staining): IL-4 polarization, 0.5-5 nM; for Effect on the release of inflammatory markers, M2 MdM: summary table. The procedure:
The differentiation of human monocytes to macrophages (MdMs) was performed as previously described. Briefly, 0.5 × 10^6 CD14^+ cells/well were pretreated with different concentrations of PatA and DMDA or vehicle (DMSO) for 30 min. After pre-incubation, differentiation was initiated by the addition of 10 ng/mL GM-CSF for M1 MdMs or 50 ng/mL M-CSF for M2 MdMs and incubated for 7 days.
The polarization of MdMs to M1 or M2 MdMs was performed as previously described. M1 and M2 MdM polarization was conducted in separate experiments. Briefly, M1 MdMs were polarized in presence of PatA (0.5, 2.5, 5 nM), DMDA (0.5, 2.5, 5 nM) or vehicle (DMSO) with 20 ng/mL human IFN-γ for 48 h. M2 MdMs were polarized in presence of PatA (0.5, 2.5, 5 nM), DMDA (0.5, 2.5, 5 nM) or vehicle (DMSO) with 10 ng/mL human IL-4 for 24 h.
Surface marker analysis was performed as described previously. Briefly, 1.5–2 × 10^5 cells of each sample were blocked with human FcR Blocking Reagent (15 min, 4 °C). A Zombie Aqua™ Fixable Viability Kit (1:500 dilution, BioLegend, San Diego, CA, USA) was used according to the manufactory protocol to discriminate living and dead cells. Afterwards, samples were stained with a mixture of different surface marker antibodies (15 min, 4 °C) and measured with MACSQuant® Analyzer 10 flow cytometer. For M1-/M2-MdMs anti-CD86, anti-CD14, anti-HLA-DR, anti-CD206, anti-CD80, anti-TREM2 and anti-CD163 were used. For T cells, anti-CD69, anti-CD54, anti-CD49a, anti-CD18, anti-CD134, anti-CD154, anti-CD3 and anti-CD25 were analyzed. For B cells, anti-CD27, anti-CD19 and anti-CD38 were applied. For T cell and B cell proliferation assay, freshly isolated T and B cells were stained with CTV and detected using flow cytometry. Naïve B cells were characterized as CD19^+CD27^lowCD38^med, memory B cells as CD19^+CD27^med CD38^low and plasma cells as CD27^+CD38^+ cells. M1 MdMs and M2 MdMs cell population was gated using FSC/SSC channel. T cells were gated as CD3^+CD25^+ positive cells. The geometric mean of the fluorescent intensity was calculated using FlowJo software v10 (Treestar, Ashland, […], USA). Fold induction of surface marker expression was calculated using the DMSO-treated cells as the control.
For determination of cytokine concentrations in the supernatant of humane immune cells, cytometric bead array (BD Biosciences, Heidelberg, Germany) for IL-10, IL-17, IL-8, IL-6, IFN-γ and CCL2 was used. For the detection of CCL18, CCL17, IgG, IgA and PGE2, an ELISA was performed. The cytometric bead arrays and the ELISAs were performed according to the protocol of the supplier.
In general terms: A flow cytometer gives signals particle by particle.

[3] abbreviates: M2 MdMs, CD163low population, 24 h.

On to `CC(/C=C/C(C)=C/[C@@H]1Cc2nc(cs2)CCCCC(=O)O[C@@H](C)C/C(C)=C/C=C\C(=O)O1)=C\CN(C)C` [DMDA, des-methyl des-amino pateamine A], for which the “Transport rate with Caco-2 cell barrier” value in the data set with Caco-2 cell barrier (100 nM, 24 h) is “about 6%”. The “Permeability / transport rate across Caco-2 cell barrier (in words)” value in the data set on Caco-2 cell barrier is recorded as “exhibited low permeability”. The entries for the “Energy metabolism: glycolysis (ECAR) and oxidative phosphorylation (OCR)” value (shortened to “Energy metabolism: glycolysis”) in the data set with M2 MdMs [1] and in the data set with B cells were “had no effect on energy consumption” and “induced only glycolysis”, respectively. Moreover, the “TREM2 surface marker expression” value in the data set with M2 MdMs [2] (M2 MdMs, CD163low population, 24 h, 5 nM) was “increased the anti-inflammatory surface marker TREM2”. Further, the “Inflammatory environment (inflammatory mediators in supernatant)” value with M2 MdMs [2] (M2 MdMs) was “did not affect the inflammatory environment”. The “Apoptosis (zombie staining)” value in the data set with M2 MdMs [2] (M2 MdMs, 24 h) is on record as “did not induce apoptosis”. For the same compound, the “Effect on the release of inflammatory markers, M2 MdM” value in the data set with M2 MdMs [2] is listed as “No effect”.

For the compound `CC(/C=C/C(C)=C/[C@@H]1Cc2nc(cs2)[C@@H](C)C[C@@H](N)CC(=O)O[C@@H](C)C/C(C)=C/C=C\C(=O)O1)=C\CN(C)C` [PatA, pateamine A], in the data set with Caco-2 cell barrier, the “Permeability / transport rate across Caco-2 cell barrier (in words)” value is given as “no permeability was detected”. For the same compound, in the data set with M2 MdMs [1], the “Energy metabolism: glycolysis” value is “reduced glycolysis and oxidative phosphorylation”. In addition, in the data set on B cells, the “Energy metabolism: glycolysis” value is “induced oxidative phosphorylation and glycolysis”. In the data set on M2 MdMs [2] (setting [3]), the “CD80 surface marker expression” value is reported as “induced the pro-inflammatory marker CD80” and the “CD206 surface marker expression” value was “reduced the anti-inflammatory marker CD206”. Further, the “Inflammatory environment (inflammatory mediators in supernatant)” value with M2 MdMs [2] (M2 MdMs) is listed as “did not affect the inflammatory environment”. Also, in the data set on M2 MdMs [2] (M2 MdMs, 24 h), the “Apoptosis (zombie staining)” value is “did not induce apoptosis”. Moreover, the “Effect on the release of inflammatory markers, M2 MdM” value with M2 MdMs [2] is on record as “No effect”.
